# Laboratory results reported in patent US20260265238A1, “COMPOUNDS AND PHARMACEUTICAL COMPOSITIONS THAT DEGRADE SWI/SNF-RELATED MATRIX-ASSOCIATED ACTIN-DEPENDENT REGULATOR OF CHROMATIN SUBFAMILY A” (Plexium, Inc., priority 2023, published 2026).
# Columns and labels:
# [1] = target: T1, SMARCA2-HiBiT HeLa cells (protein which is expressed from the SMARCA2 gene) (Homo sapiens, UniProt P51531); test: SMARCA2 degradation assay (HiBiT-fusion HeLa cell line, 24 h, luminescence); assay type: cell-based
# T1 construct: protein which is expressed from the SMARCA2 and SMARCA4 genes; host or cells: HeLa (SMARCA2-HiBiT engineered line)
# In short: (§1)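 SMARCA2- or SMARCA4-HiBiT HeLa cells seeded overnight at 37° C, then given compound as a 10-point dilution (typically 10 μM to 300 pM) for 24 h at 37° C. Protein level read by HiBiT lytic detection luminescence; DC50 from dose-response curves; degradation also scored at 1 μM.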
# [2] = target: T2, SMARCA4-HiBiT HeLa cells (protein which is expressed from the SMARCA4 gene) (Homo sapiens, UniProt P51532); test: SMARCA4 degradation assay (HiBiT-fusion HeLa cell line, 24 h, luminescence); assay type: cell-based
# T2 construct: protein which is expressed from the SMARCA2 and SMARCA4 genes; host or cells: HeLa (SMARCA4-HiBiT engineered line)
# In short: as §1
# T2 sequence (P51532 whole entry, the tested form may be a part): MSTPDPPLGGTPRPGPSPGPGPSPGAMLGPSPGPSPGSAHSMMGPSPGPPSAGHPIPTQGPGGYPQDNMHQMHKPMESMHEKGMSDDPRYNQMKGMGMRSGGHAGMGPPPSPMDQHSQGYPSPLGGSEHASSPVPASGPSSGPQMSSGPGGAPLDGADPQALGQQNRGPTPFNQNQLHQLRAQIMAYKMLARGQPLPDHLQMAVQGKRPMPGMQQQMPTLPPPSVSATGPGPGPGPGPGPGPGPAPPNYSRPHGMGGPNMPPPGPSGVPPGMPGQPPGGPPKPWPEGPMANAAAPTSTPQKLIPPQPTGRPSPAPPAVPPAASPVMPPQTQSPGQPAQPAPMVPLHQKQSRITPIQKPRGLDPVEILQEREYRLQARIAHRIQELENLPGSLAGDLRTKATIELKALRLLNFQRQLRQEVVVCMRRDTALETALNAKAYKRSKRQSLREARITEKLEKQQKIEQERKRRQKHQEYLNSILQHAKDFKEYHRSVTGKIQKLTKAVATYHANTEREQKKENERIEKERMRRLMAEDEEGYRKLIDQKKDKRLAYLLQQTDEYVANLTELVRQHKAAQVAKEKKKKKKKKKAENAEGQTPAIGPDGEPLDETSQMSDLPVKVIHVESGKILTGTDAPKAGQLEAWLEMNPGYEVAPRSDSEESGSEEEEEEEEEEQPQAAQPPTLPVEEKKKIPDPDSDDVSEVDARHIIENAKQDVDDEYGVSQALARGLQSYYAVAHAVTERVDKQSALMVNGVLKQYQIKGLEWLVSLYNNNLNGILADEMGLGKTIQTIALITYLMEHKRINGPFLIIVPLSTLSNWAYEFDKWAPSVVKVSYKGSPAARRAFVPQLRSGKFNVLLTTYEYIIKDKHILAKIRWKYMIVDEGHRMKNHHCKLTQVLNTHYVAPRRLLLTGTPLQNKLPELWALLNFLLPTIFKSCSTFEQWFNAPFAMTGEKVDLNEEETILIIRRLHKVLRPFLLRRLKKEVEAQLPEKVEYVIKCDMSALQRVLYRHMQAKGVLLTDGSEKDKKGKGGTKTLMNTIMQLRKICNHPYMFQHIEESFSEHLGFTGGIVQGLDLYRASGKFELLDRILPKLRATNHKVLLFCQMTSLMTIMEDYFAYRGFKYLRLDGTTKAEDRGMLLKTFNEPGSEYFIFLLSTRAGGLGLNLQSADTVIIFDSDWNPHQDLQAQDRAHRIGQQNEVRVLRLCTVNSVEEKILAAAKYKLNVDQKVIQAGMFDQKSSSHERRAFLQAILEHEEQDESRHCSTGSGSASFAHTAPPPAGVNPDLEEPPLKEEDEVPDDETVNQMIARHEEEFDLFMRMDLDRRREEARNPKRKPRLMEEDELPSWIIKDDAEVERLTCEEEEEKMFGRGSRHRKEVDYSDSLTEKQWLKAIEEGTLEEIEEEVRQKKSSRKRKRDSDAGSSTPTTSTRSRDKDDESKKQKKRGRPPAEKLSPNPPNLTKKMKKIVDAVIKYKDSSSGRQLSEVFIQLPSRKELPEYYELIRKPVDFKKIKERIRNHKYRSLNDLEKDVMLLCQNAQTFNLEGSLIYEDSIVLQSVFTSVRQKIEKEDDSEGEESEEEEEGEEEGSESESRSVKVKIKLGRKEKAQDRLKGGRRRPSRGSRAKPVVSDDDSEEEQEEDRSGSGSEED
# T1 sequence (P51531 whole entry, the tested form may be a part): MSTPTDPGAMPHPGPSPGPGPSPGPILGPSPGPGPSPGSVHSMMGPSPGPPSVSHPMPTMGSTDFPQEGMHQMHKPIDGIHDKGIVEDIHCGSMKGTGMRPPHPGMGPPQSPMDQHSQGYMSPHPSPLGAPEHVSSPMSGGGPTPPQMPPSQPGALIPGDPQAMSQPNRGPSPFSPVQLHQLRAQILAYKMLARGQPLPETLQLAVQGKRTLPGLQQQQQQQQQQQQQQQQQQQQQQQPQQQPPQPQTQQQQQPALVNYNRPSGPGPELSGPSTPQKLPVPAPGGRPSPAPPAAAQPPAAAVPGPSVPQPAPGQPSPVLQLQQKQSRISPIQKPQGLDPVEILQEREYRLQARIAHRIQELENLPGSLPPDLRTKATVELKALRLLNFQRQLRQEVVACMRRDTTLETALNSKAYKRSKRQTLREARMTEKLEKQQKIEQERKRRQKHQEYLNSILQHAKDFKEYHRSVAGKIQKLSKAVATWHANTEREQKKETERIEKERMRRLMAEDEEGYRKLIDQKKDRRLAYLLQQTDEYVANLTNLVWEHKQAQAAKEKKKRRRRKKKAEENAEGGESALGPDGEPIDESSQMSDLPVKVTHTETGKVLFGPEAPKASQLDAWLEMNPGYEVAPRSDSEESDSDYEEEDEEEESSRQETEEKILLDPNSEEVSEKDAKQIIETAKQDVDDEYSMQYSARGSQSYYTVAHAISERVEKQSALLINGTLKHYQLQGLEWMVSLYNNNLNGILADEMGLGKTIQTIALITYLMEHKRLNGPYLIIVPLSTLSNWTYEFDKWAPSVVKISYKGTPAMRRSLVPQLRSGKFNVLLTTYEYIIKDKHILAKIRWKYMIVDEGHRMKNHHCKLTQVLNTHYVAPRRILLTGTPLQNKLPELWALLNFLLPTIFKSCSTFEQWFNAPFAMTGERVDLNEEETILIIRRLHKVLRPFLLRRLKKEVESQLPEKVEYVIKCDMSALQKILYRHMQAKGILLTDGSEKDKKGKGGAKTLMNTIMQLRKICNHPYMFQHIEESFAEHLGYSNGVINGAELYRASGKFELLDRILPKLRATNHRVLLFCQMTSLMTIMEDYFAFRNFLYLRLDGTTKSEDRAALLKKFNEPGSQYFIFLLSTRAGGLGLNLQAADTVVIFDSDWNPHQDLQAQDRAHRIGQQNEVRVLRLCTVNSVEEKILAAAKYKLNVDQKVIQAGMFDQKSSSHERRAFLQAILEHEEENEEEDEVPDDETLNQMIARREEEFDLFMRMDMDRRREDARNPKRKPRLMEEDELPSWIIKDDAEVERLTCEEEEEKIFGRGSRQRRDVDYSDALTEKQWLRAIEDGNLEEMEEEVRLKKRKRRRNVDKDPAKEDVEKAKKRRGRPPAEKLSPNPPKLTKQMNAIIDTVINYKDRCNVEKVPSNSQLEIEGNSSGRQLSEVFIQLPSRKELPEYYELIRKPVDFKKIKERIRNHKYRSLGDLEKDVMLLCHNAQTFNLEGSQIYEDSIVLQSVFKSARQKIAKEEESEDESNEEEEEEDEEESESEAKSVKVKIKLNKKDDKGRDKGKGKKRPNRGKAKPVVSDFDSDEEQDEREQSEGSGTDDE
SMILES,DC50 [1],SMARCA2 % Degradation @ 1 μM ([1]; @ 1 μM),DC50 [2],inhibition at 1 µM ([2]; @ 1 μM),SMARCA2 % Degradation @ 1 μM ([1]; 1 μM),inhibition at 1 µM ([2]; 1 μM)
"C[C@@H]1CCN(c2cc(-c3ccccc3O)nnc2N)CCN1c1ccnc(C#C[C@@H](C)O)n1 [Compound P-198, o-{5-[(R)-4-{2-[(R)-3-hydroxy-1-butynyl]-4-pyrimidinyl}-5-methyl-1,4-diazepan-1-yl]-6-amino-3-pyridazinyl}phenol]",50 to 500 nM,+++ (+++=>70%),500 to 5000 nM,30 to 70%,,
"CC(C#Cc1cc(N2CCN(c3cc(-c4ccccc4O)nnc3N)CC[C@H]2C)ccn1)N(C)C (stereo partly drawn) [Compound P-399, 0-{5-[(R)-4-{2-[3-(dimcthylamino)-1-butynyl]-4-pyridyl}-5-methyl-1,4-diazepan-1-y1]-6-amino-3-pyridazinyl}phenol]",< 50 nM,,< 50 nM,,++ (++=30-70%),30 to 70%
"COC1CN(CC#Cc2nccc(N3CCCN(c4cc(-c5ccccc5O)nnc4N)CC3)n2)C1 [Compound P-309, 0-[6-amino-5-(4-{2-[3-(3-methoxy-1-azetidinyl)-1-propynyl]-4-pyrimidinyl}-1,4-diazepan-1-yl)-3-pyridazinyl]phenol]",50 to 500 nM,++ (++=30-70%),50 to 500 nM,30 to 70%,,
"Nc1nnc(-c2ccccc2O)cc1N1CC[C@@H]2[C@H]1CN2c1ccnc(C#CCNC(=O)c2cc3ncccn3n2)n1 [Compound P-47, N-(3-(4-((1R,5R)-2-(3-amino-6-(2-hydroxyphenyl)pyridazin-4-yl)-2,6-diazabicyclo[3.2.0]heptan-6-yl)pyrimidin-2-yl)prop-2-yn-1-yl)pyrazolo[1,5-a]pyrimidine-2-carboxamide]",500 to 5000 nM,+ (+=<30%),500 to 5000 nM,< 30%,,
"CN(C)CC#Cc1cc(OC2CN(c3cc(-c4ccccc4O)nnc3N)C2)ccn1 [Compound P-386, 0-[6-amino-5-(3-{2-[3-(dimethylamino)-1-propynyl]-4-pyridyloxy}-1-azetidinyl)-3-pyridazinyl]phenol]",< 50 nM,,< 50 nM,,+ (+=<30%),
"N#Cc1ccc(N2C3CCC2CN(c2cnnc(-c4ccccc4O)c2)C3)nc1C#CCN1CC[C@H](F)C1 [Compound P-402, 2-{3-[(S)-3-fluoro-1-pyrrolidinyl]-1-propynyl}-6-{3-[6-(o-hydroxyphenyl)-4-pyridazinyl]-3,8-diazabicyclo[3.2.1]oct-8-yl}nicotinonitrile]",50 to 500 nM,,50 to 500 nM,,++ (++=30-70%),< 30%
"C[C@@H]1CCN(c2cc(-c3ccccc3O)nnc2N)CCN1c1ccnc(C=CCN(C)CC(F)F)n1 [Compound P-163, o-{5-[(R)-4-(2-{3-[(2,2-difluoroethyl)-N-methylamino]-1-propenyl}-4-pyrimidinyl)-5-methyl-1,4-diazepan-1-yl]-6-amino-3-pyridazinyl}phenol]",50 to 500 nM,++ (++=30-70%),50 to 500 nM,< 30%,,
C[C@@H]1CCN(c2cc(-c3ccccc3O)nnc2N)CCN1c1ccnc(C#CCN2C[C@@H]3C[C@H]2CO3)n1 [Compound P-200],50 to 500 nM,+++ (+++=>70%),50 to 500 nM,30 to 70%,,
"C[C@H]1COCCN1CC#Cc1nccc(N2CCCN(c3cc(-c4ccccc4O)nnc3N)CC2)n1 [Compound P-316, 0-{5-[4-(2-{3-[(S)-3-methyl-4-morpholinyl]-1-propynyl}-4-pyrimidinyl)-1,4-diazepan-1-yl]-6-amino-3-pyridazinyl}phenol]",50 to 500 nM,++ (++=30-70%),500 to 5000 nM,< 30%,,
"Nc1nnc(-c2ccccc2O)cc1N1CCCN(c2ccnc(C#CCO)n2)CC1 [Compound P-125, 2-(6-amino-5-(4-(2-(3-hydroxyprop-1-yn-1-yl)pyrimidin-4-yl)-1,4-diazepan-1-yl)pyridazin-3-yl)phenol]",50 to 500 nM,++ (++=30-70%),50 to 500 nM,30 to 70%,,
"Nc1nnc(-c2ccccc2O)cc1N1CCN(c2ccnc(C#CCNC(=O)c3cnn4cccc(F)c34)n2)CC1 [Compound P-117, N-(3-(4-(4-(3-amino-6-(2-hydroxyphenyl)pyridazin-4-yl)piperazin-1-yl)pyrimidin-2-yl)prop-2-yn-1-yl)-4-fluoropyrazolo[1,5-a]pyridine-3-carboxamide]",50 to 500 nM,++ (++=30-70%),50 to 500 nM,30 to 70%,,
